Laboratory results taken from DBAASP.
Converted amounts (≈) assume the structure as drawn.

Columns and labels:
Assay in all cases: ≥ marks a high value that may be exact or a test limit, other limits are often not marked, values filed in µg/mL are converted to µM
[1] = tested on: Candida albicans ATCC 10231
[2] = tested on: Candida glabrata ATCC 2001
Candida krusei ATCC 6258 = tested on: Candida krusei ATCC 6258
[3] = tested on: Candida parapsilosis ATCC 90018
[4] = tested on: Candida tropicalis ATCC 750
[5] = tested on: Escherichia coli ATCC 25922
[6] = tested on: Pseudomonas aeruginosa ATCC 27853
[7] = tested on: Staphylococcus aureus ATCC 29213
Fusarium graminearum = tested on: Fusarium graminearum
Candida albicans DBFIQ 1 = tested on: Candida albicans DBFIQ 1
Candida albicans PEEC 2 = tested on: Candida albicans PEEC 2
[8] = tested on: Candida tropicalis DBFIQ 3
[9] = tested on: Enterococcus faecalis ATCC 29212
[10] = tested on: Escherichia coli ATCC 35218
[11] = tested on: Staphylococcus aureus ATCC 25923
[12] = tested on: Staphylococcus aureus BSF FBCB1313
[13] = tested on: Bifidobacterium longum subsp. infantis
Escherichia coli = tested on: Escherichia coli
Staphylococcus aureus = tested on: Staphylococcus aureus
[14] = tested on: Acinetobacter baumannii ATCC 17978
Bacillus cereus DSM 4222 = tested on: Bacillus cereus DSM 4222
Bacillus cereus DSM 4312 = tested on: Bacillus cereus DSM 4312
[15] = tested on: Bacillus subtilis ATCC 6051
[16] = tested on: Bacillus subtilis ATCC 6633
[17] = tested on: Clostridium perfringens ATCC 13124
[18] = tested on: Clostridium perfringens DSM 11784
[19] = tested on: Enterobacter cloacae ATCC 13047
[20] = tested on: Enterococcus faecium ATCC 19434
[21] = tested on: Escherichia coli ATCC 35150
[22] = tested on: Escherichia coli ATCC 8739
[23] = tested on: Escherichia coli NCTC 13452
[24] = tested on: Escherichia coli NEB5alpha
[25] = tested on: Escherichia coli O157:H7 ATCC 35150
[26] = tested on: Klebsiella pneumoniae ATCC 13883
[27] = tested on: Listeria monocytogenes ATCC 19115
[28] = tested on: Listeria monocytogenes SLCC 5581
Listeria monocytogenes = tested on: Listeria monocytogenes
[29] = tested on: Pseudomonas aeruginosa ATCC 10145
[30] = tested on: Pseudomonas fluorescens DSM 50124
[31] = tested on: Pseudomonas putida DSM 291
[32] = tested on: Salmonella enterica subsp. enterica serovar Typhimurium ATCC 14028
[33] = tested on: Salmonella enterica subsp. enterica serovar Typhimurium DSM 554
[34] = tested on: Salmonella typhimurium DSM 19587
[35] = tested on: Staphylococcus aureus ATCC 16558
[36] = tested on: Staphylococcus aureus ATCC 3300
[37] = tested on: Staphylococcus aureus ATCC 43300
[38] = tested on: Staphylococcus aureus ATCC 6538
[39] = tested on: Staphylococcus aureus DSM 2569
[40] = tested on: Staphylococcus aureus RN4220
[41] = tested on: Bacillus subtilis KCCM 11495
[42] = tested on: Escherichia coli KCCM 11569

CC[C@H](C)[C@H](NC(=O)CN)C(=O)N[C@@H](CC(C)C)C(=O)N[C@@H](CC(=O)O)C(=O)N[C@H](C(=O)N[C@@H](CCCCN)C(=O)N[C@@H](CC(N)=O)C(=O)N[C@@H](CCCCN)C(=O)N[C@H](C(=O)N[C@@H](CO)C(=O)N[C@@H](CC(N)=O)C(=O)N[C@@H](CC(C)C)C(=O)N[C@@H](Cc1ccccc1)C(=O)N[C@@H](CCCCN)C(=O)N[C@@H](CCCCN)C(=O)N[C@H](C(=O)N[C@@H](CCCCN)C(N)=O)[C@@H](C)CC)C(C)C)[C@@H](C)CC [GILDIKNKVSNLFKKIK]
MIC [1]: 250 µM (≈ 489 µg/mL)
MIC [2]: ≥ 500 µM
MIC (Candida krusei ATCC 6258): ≥ 62.5 µM
MIC [3]: ≥ 500 µM
MIC [4]: ≥ 500 µM
MIC [5]: > 130 µM
MIC [6]: > 130 µM
MIC [7]: > 130 µM

CC(C)C[C@H](NC(=O)[C@@H](N)CCCCN)C(=O)N[C@@H](CS)C(=O)N[C@@H](CCC(=O)O)C(=O)N[C@@H](CCCCN)C(=O)N1CCC[C@H]1C(=O)N[C@@H](CO)C(=O)N[C@@H](CCCCN)C(=O)N[C@H](C(=O)N[C@@H](Cc1c[nH]c2ccccc12)C(=O)N[C@@H](Cc1ccccc1)C(=O)NCC(=O)N[C@@H](CC(N)=O)C(=O)N[C@@H](CS)C(=O)NCC(=O)N[C@@H](CC(N)=O)C(=O)N1CCC[C@H]1C(=O)N[C@@H](CCCN=C(N)N)C(=O)N[C@@H](Cc1cnc[nH]1)C(=O)N[C@@H](CS)C(=O)NCC(=O)O)[C@@H](C)O [KLCEKPSKTWFGNCGNPRHCG]
MIC (Fusarium graminearum): ≥ 32 µM

CC(C)C[C@H](NC(=O)[C@H](CCCCN)NC(=O)[C@H](CCCCN)NC(=O)[C@H](Cc1ccccc1)NC(=O)[C@H](CC(C)C)NC(=O)[C@H](CCCCN)NC(=O)[C@H](CCCCN)NC(=O)[C@H](Cc1ccccc1)NC(=O)[C@H](CC(C)C)NC(=O)[C@@H](N)CCCCN)C(=O)N[C@@H](Cc1ccccc1)C(=O)N[C@@H](CCCCN)C(N)=O [KLFKKLFKKLFK]
MIC (Candida albicans DBFIQ 1): ≥ 40.8 µM
MIC (Candida albicans PEEC 2): ≥ 40.8 µM
MIC [8]: ≥ 81.7 µM
MIC [9]: 5.1 µM (≈ 7.99 µg/mL)
MIC [10]: 5.1 µM (≈ 7.99 µg/mL)
MIC [6]: 2.6 µM (≈ 4.07 µg/mL)
MIC [11]: 2.6 µM (≈ 4.07 µg/mL)
MIC [12]: 10.2 µM (≈ 16 µg/mL)

CC[C@H](C)[C@H](NC(=O)[C@@H]1CCCN1C(=O)[C@H](CC(N)=O)NC(=O)[C@H](Cc1cnc[nH]1)NC(=O)[C@@H](NC(=O)[C@@H]1CCCN1C(=O)[C@H](C)NC(=O)[C@@H](N)CC(C)C)C(C)C)C(=O)O [LAPVHNPI]
MIC [13]: ≥ 3490 µM
MIC (Escherichia coli): 3490 µM (≈ 3000 µg/mL)
MIC (Staphylococcus aureus): 3490 µM (≈ 3000 µg/mL)

CC[C@H](C)[C@H](NC(=O)[C@@H](N)CCCN=C(N)N)C(=O)N[C@@H](CCCCN)C(=O)N[C@H](C(=O)N[C@H](C(=O)N[C@H](C(=O)N[C@@H](CO)C(=O)N[C@@H](Cc1ccccc1)C(=O)N[C@@H](CC(=O)O)C(=O)N[C@@H](CC(C)C)C(=O)N1CCC[C@H]1C(=O)N[C@@H](C)C(=O)N[C@@H](CC(C)C)C(=O)N[C@@H](CCCN=C(N)N)C(=O)N[C@@H](Cc1c[nH]c2ccccc12)C(=O)N[C@@H](CC(C)C)C(=O)N[C@@H](CCCCN)C(=O)N[C@@H](CC(C)C)C(=O)O)[C@@H](C)O)C(C)C)[C@@H](C)O [RIKTVTSFDLPALRWLKL]
MIC [14]: ≥ 464 µM
MIC (Bacillus cereus DSM 4222): ≥ 1000 µM
MIC (Bacillus cereus DSM 4312): ≥ 1000 µM
MIC [15]: 15.6 µM (≈ 33.7 µg/mL)
MIC [16]: ≥ 1160 µM
MIC [17]: ≥ 125 µM
MIC [18]: ≥ 1000 µM
MIC [19]: ≥ 464 µM
MIC [20]: ≥ 464 µM
MIC [21]: ≥ 500 µM
MIC [22]: ≥ 371 µM
MIC [23]: ≥ 125 µM
MIC [24]: ≥ 62.5 µM
MIC [25]: ≥ 371 µM
MIC (Escherichia coli): > 464 µM
MIC [26]: ≥ 464 µM
MIC [27]: ≥ 1160 µM
MIC [28]: ≥ 500 µM
MIC (Listeria monocytogenes): ≥ 250 µM
MIC [29]: ≥ 464 µM
MIC [30]: ≥ 500 µM
MIC [31]: ≥ 125 µM
MIC [32]: > 464 µM
MIC [33]: ≥ 1000 µM
MIC [34]: ≥ 1000 µM
MIC [35]: ≥ 1160 µM
MIC [11]: > 464 µM
MIC [36]: ≥ 500 µM
MIC [37]: > 464 µM
MIC [38]: > 1160 µM
MIC [39]: ≥ 500 µM
MIC [40]: ≥ 1160 µM

CC(C)C[C@H](NC(=O)CNC(=O)[C@H](Cc1cnc[nH]1)NC(=O)[C@H](Cc1cnc[nH]1)NC(=O)[C@H](CC(C)C)NC(=O)[C@H](CC(C)C)NC(=O)[C@H](C)NC(=O)[C@H](CC(N)=O)NC(=O)[C@H](CC(C)C)NC(=O)[C@@H](N)Cc1c[nH]c2ccccc12)C(=O)N[C@@H](CC(N)=O)C(=O)N[C@@H](CS)C(=O)N[C@@H](C)C(=O)N[C@@H](CCCCN)C(=O)NCC(N)=O [WLNALLHHGLNCAKG]
MIC [41]: ≥ 38.9 µM
MIC [42]: ≥ 38.9 µM
